In PubChem BioAssay (NCI):
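Five concentrations, 48 hours, 96-well plates. TGI marks complete inhibition of growth.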

How the values were obtained:
Assay in all cases: NCI tumour cell line growth inhibition, 48 h
[1] = tested on: SN12C renal
[2] = tested on: M19-MEL melanoma
[3] = tested on: ACHN renal
[4] = tested on: A549 NSCLC
[5] = tested on: HL-60(TB) leukemia
[6] = tested on: RXF-631 renal
[7] = tested on: SK-OV-3 ovarian
[8] = tested on: OVCAR-5 ovarian
[9] = tested on: SF-295 CNS
[10] = tested on: KM20L2 colon
[11] = tested on: IGROV1 ovarian
[12] = tested on: U251 CNS
[13] = tested on: LOX IMVI melanoma
[14] = tested on: OVCAR-3 ovarian
[15] = tested on: HT29 colon
[16] = tested on: M14 melanoma
[17] = tested on: DMS 114 small cell lung
[18] = tested on: SF-268 CNS
[19] = tested on: SNB-78 CNS
[20] = tested on: SNB-19 CNS
[21] = tested on: HCT-15 colon
[22] = tested on: LXFL 529 NSCLC
[23] = tested on: HOP-92 NSCLC
[24] = tested on: CCRF-CEM leukemia
[25] = tested on: HCT-116 colon
[26] = tested on: NCI-H23 lung
[27] = tested on: OVCAR-8 ovarian
[28] = tested on: MALME-3M melanoma
[29] = tested on: NCI-H522 lung
[30] = tested on: NCI-H460 lung
[31] = tested on: DLD-1 colon
[32] = tested on: K-562 leukemia
[33] = tested on: SK-MEL-2 melanoma
[34] = tested on: A498 renal
[35] = tested on: RPMI-8226 leukemia
[36] = tested on: COLO 205 colon
[37] = tested on: SF-539 CNS
[38] = tested on: NCI-H226 lung
[39] = tested on: CAKI-1 renal
[40] = tested on: SK-MEL-5 melanoma
[41] = tested on: 786-0 renal
[42] = tested on: KM12 colon
[43] = tested on: OVCAR-4 ovarian
[44] = tested on: XF 498 CNS
[45] = tested on: UACC-257 melanoma
[46] = tested on: TK-10 renal
[47] = tested on: EKVX NSCLC
[48] = tested on: UO-31 renal
[49] = tested on: DMS 273 small cell lung
[50] = tested on: MOLT-4 leukemia
[51] = tested on: UACC-62 melanoma
[52] = tested on: HCC-2998 colon
[53] = tested on: SW-620 colon
[54] = tested on: P388 leukemia
[55] = tested on: P388/ADR leukemia
[56] = tested on: RXF 393 renal
[57] = tested on: MCF7 breast
[58] = tested on: HOP-18 NSCLC
[59] = tested on: NCI/ADR-RES ovarian
[60] = tested on: SK-MEL-28 melanoma
[61] = tested on: SN12K1 renal
[62] = tested on: SNB-75 CNS
[63] = tested on: HOP-62 NSCLC
[64] = tested on: SR leukemia

CCCCC(C(=O)C(=O)Nc1ccccc1CC)C(=O)C(C)C (centres undefined)
TGI [1]: > 100 µM | TGI [2]: > 100 µM | TGI [3]: > 100 µM | TGI [4]: > 100 µM | TGI [5]: > 100 µM | TGI [6]: > 100 µM | TGI [7]: > 100 µM | TGI [8]: > 100 µM | TGI [9]: > 100 µM | TGI [10]: > 100 µM | TGI [11]: > 100 µM | TGI [12]: > 100 µM | TGI [13]: > 100 µM | TGI [14]: > 100 µM | TGI [15]: > 100 µM | TGI [16]: > 100 µM | TGI [17]: > 100 µM | TGI [18]: > 100 µM | TGI [19]: > 100 µM | TGI [20]: > 100 µM | TGI [21]: > 100 µM | TGI [22]: > 100 µM | TGI [23]: > 100 µM | TGI [24]: > 100 µM | TGI [25]: > 100 µM | TGI [26]: > 100 µM | TGI [27]: > 100 µM | TGI [28]: > 100 µM | TGI [29]: > 100 µM | TGI [30]: > 100 µM | TGI [31]: > 100 µM | TGI [32]: > 100 µM | TGI [33]: > 100 µM | TGI [34]: > 100 µM | TGI [35]: > 100 µM | TGI [36]: > 100 µM | TGI [37]: > 100 µM | TGI [38]: > 100 µM | TGI [39]: > 100 µM | TGI [40]: > 100 µM | TGI [41]: > 100 µM | TGI [42]: > 100 µM | TGI [43]: > 100 µM | TGI [44]: > 100 µM | TGI [45]: > 100 µM | TGI [46]: > 100 µM | TGI [47]: > 100 µM | TGI [48]: > 100 µM | TGI [49]: > 100 µM | TGI [50]: > 100 µM | TGI [51]: > 100 µM | TGI [52]: > 100 µM | TGI [53]: > 100 µM

O=S1(=O)C(=C(c2ccccc2)c2ccccc2)S(=O)(=O)c2ccccc21
TGI [54]: > 31.6 µM | TGI [1]: > 100 µM | TGI [2]: > 100 µM | TGI [4]: > 100 µM | TGI [5]: > 100 µM | TGI [55]: > 100 µM | TGI [7]: > 100 µM | TGI [8]: > 100 µM | TGI [9]: > 66.4 µM | TGI [10]: > 100 µM | TGI [11]: > 100 µM | TGI [12]: > 100 µM | TGI [13]: > 100 µM | TGI [56]: > 100 µM | TGI [14]: > 100 µM | TGI [15]: > 100 µM | TGI [17]: > 100 µM | TGI [18]: > 100 µM | TGI [19]: 99.7 µM | TGI [20]: > 100 µM | TGI [21]: > 100 µM | TGI [57]: > 100 µM | TGI [23]: 50.8 µM | TGI [24]: > 100 µM | TGI [25]: > 100 µM | TGI [26]: > 100 µM | TGI [27]: > 100 µM | TGI [28]: > 100 µM | TGI [58]: > 100 µM | TGI [29]: > 100 µM | TGI [30]: > 100 µM | TGI [31]: > 100 µM | TGI [32]: > 100 µM | TGI [33]: > 100 µM | TGI [34]: > 100 µM | TGI [35]: > 100 µM | TGI [36]: > 100 µM | TGI [37]: 73.3 µM | TGI [38]: > 100 µM | TGI [39]: > 100 µM | TGI [40]: > 100 µM | TGI [42]: > 100 µM | TGI [59]: > 100 µM | TGI [43]: > 100 µM | TGI [44]: 62.4 µM | TGI [45]: > 100 µM | TGI [60]: > 100 µM | TGI [47]: > 100 µM | TGI [48]: > 100 µM | TGI [49]: > 100 µM | TGI [61]: 65.1 µM | TGI [50]: > 100 µM | TGI [51]: > 100 µM | TGI [62]: 44.4 µM | TGI [52]: > 100 µM | TGI [63]: 46.8 µM | TGI [53]: > 100 µM

COC(=O)N/N=c1\cc(C(=O)Nc2ccc(C)c(C)c2)oc2cc(O)ccc12
TGI [1]: > 100 µM | TGI [2]: > 100 µM | TGI [3]: > 100 µM | TGI [4]: > 100 µM | TGI [5]: > 100 µM | TGI [6]: > 100 µM | TGI [7]: > 100 µM | TGI [8]: > 100 µM | TGI [9]: > 100 µM | TGI [10]: > 100 µM | TGI [11]: > 100 µM | TGI [12]: > 100 µM | TGI [13]: > 100 µM | TGI [56]: > 100 µM | TGI [14]: > 100 µM | TGI [15]: > 100 µM | TGI [16]: > 100 µM | TGI [17]: > 100 µM | TGI [18]: > 100 µM | TGI [19]: > 100 µM | TGI [20]: > 100 µM | TGI [21]: > 100 µM | TGI [22]: > 100 µM | TGI [23]: > 100 µM | TGI [24]: > 100 µM | TGI [25]: > 100 µM | TGI [26]: > 100 µM | TGI [27]: > 100 µM | TGI [28]: > 100 µM | TGI [58]: > 100 µM | TGI [29]: > 100 µM | TGI [30]: > 100 µM | TGI [31]: > 100 µM | TGI [32]: > 100 µM | TGI [33]: > 100 µM | TGI [34]: > 100 µM | TGI [36]: > 100 µM | TGI [37]: > 100 µM | TGI [38]: > 100 µM | TGI [39]: > 100 µM | TGI [40]: > 100 µM | TGI [41]: > 100 µM | TGI [42]: > 100 µM | TGI [43]: > 100 µM | TGI [44]: > 100 µM | TGI [45]: > 100 µM | TGI [46]: > 100 µM | TGI [60]: > 100 µM | TGI [47]: > 100 µM | TGI [48]: > 100 µM | TGI [49]: > 100 µM | TGI [50]: > 100 µM | TGI [51]: > 100 µM | TGI [62]: > 100 µM | TGI [52]: > 100 µM | TGI [63]: > 100 µM | TGI [53]: > 100 µM | TGI [64]: > 100 µM

O/N=C1/C(=C/c2ccc(OCc3ccccc3)cc2)CCCC1C(NO)c1ccc(OCc2ccccc2)cc1 (centres undefined)
TGI [1]: 9.54 µM | TGI [2]: > 100 µM | TGI [3]: > 100 µM | TGI [4]: > 100 µM | TGI [5]: > 100 µM | TGI [6]: > 100 µM | TGI [7]: > 100 µM | TGI [8]: > 100 µM | TGI [10]: > 100 µM | TGI [11]: > 100 µM | TGI [12]: 33.4 µM | TGI [13]: 24.5 µM | TGI [56]: 24.9 µM | TGI [14]: 88.8 µM | TGI [15]: > 100 µM | TGI [16]: > 100 µM | TGI [20]: > 100 µM | TGI [21]: > 100 µM | TGI [22]: > 100 µM | TGI [23]: 63.5 µM | TGI [24]: > 100 µM | TGI [25]: > 100 µM | TGI [26]: > 100 µM | TGI [27]: > 100 µM | TGI [28]: > 100 µM | TGI [58]: > 100 µM | TGI [29]: 48 µM | TGI [30]: > 100 µM | TGI [31]: > 100 µM | TGI [32]: > 100 µM | TGI [33]: > 100 µM | TGI [34]: > 100 µM | TGI [36]: > 100 µM | TGI [37]: > 100 µM | TGI [38]: > 100 µM | TGI [39]: 73.8 µM | TGI [40]: > 100 µM | TGI [41]: > 100 µM | TGI [42]: > 100 µM | TGI [43]: 57.5 µM | TGI [45]: > 100 µM | TGI [60]: > 100 µM | TGI [47]: > 100 µM | TGI [48]: > 100 µM | TGI [49]: > 100 µM | TGI [50]: > 100 µM | TGI [62]: 97.9 µM | TGI [52]: > 100 µM | TGI [63]: > 100 µM | TGI [53]: > 100 µM | TGI [64]: > 100 µM
